Assay results: patent publication US6355799B1, “Substituted benzene compounds, process for their preparation, and herbicidal and defoliant compositions containing them” (ISK Americas Incorporated, priority 1997, dated 2002)

Experiments:
Type in all cases: in vivo
[1] = tested on: velvetleaf (Abutilon theophrasti, ABUTH); assay: Post-emerge test, greenhouse herbicide activity screening; conditions: for phytotoxicity rating ABUTH: rating scale 0-100
Summary of the method: (§1)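 Applied at 15–1000 g ai/ha from acetone in 187 l/ha spray volume. Post-emergence applications included 0.25% v/v non-ionic surfactant and reached plants sown 8–21 days before. Pre-emergence applications were incorporated by surface watering. Efficacy or crop damage was rated on a 0–100 scale after 14 days.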

[2] = tested on: green foxtail (Setaria viridis, SETVI); assay: as above; conditions: for phytotoxicity rating SETVI: rating scale 0-100
Summary of the method: as §1

[3] = tested on: lambsquarters (Chenopodium album, CHEAL); assay: as above; conditions: for phytotoxicity rating CHEAL: rating scale 0-100
Summary of the method: as §1

[4] = tested on: large crabgrass (Digitaria sanguinalis, DIGSA); assay: as above; conditions: for phytotoxicity rating DIGSA: rating scale 0-100
Summary of the method: as §1

[5] = tested on: sicklepod (Cassia obtusifolia, CASOB); assay: as above; conditions: for phytotoxicity rating CASOB: rating scale 0-100
Summary of the method: as §1

[6] = tested on: johnsongrass (Sorghum halepense, SORHA); assay: as above; conditions: for phytotoxicity rating SORHA: rating scale 0-100
Summary of the method: as §1

[7] = tested on: barnyardgrass (Echinochloa crus-galli, ECHCG); assay: as above; conditions: for phytotoxicity rating ECHCG: rating scale 0-100
Summary of the method: as §1

[8] = tested on: redroot pigweed (Amaranthus retroflexus, AMARE); assay: as above; conditions: for phytotoxicity rating AMARE: rating scale 0-100
Summary of the method: as §1

[9] = tested on: ivyleaf morningglory (Ipomoea hederacea, IPOHE); assay: as above; conditions: for phytotoxicity rating IPOHE: rating scale 0-100
Summary of the method: as §1

[10] = tested on: redroot pigweed (Amaranthus retroflexus, AMARE); assay: Pre-emerge test, greenhouse herbicide activity screening; conditions: for Pre-emerge Herbicidal Activity, phytotoxicity rating (0-100), AMARE: rated 14 days after application, 0 = no damage, 100 = complete death; for Pre-emerge herbicidal activity, phytotoxicity rating AMARE: rating scale 0-100, 14 days after application
Summary of the method: (§2)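 Plants grown in 10 cm pots of sandy loam mix received acetone-dissolved compounds through a moving flat-fan nozzle. Doses ranged from 15 to 1000 g ai/ha. Pre-emerge pots were seeded one day earlier, post-emerge pots 8–21 days earlier. Fourteen days on, each pot was graded 0–100 for damage.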

[11] = tested on: velvetleaf (Abutilon theophrasti, ABUTH); assay: as above; conditions: for Pre-emerge Herbicidal Activity, phytotoxicity rating (0-100), ABUTH: rated 14 days after application, 0 = no damage, 100 = complete death; for Pre-emerge herbicidal activity, phytotoxicity rating ABUTH: rating scale 0-100, 14 days after application
Summary of the method: as §2

[12] = tested on: green foxtail (Setaria viridis, SETVI); assay: as above; conditions: for Pre-emerge Herbicidal Activity, phytotoxicity rating (0-100), SETVI: rated 14 days after application, 0 = no damage, 100 = complete death; for Pre-emerge herbicidal activity, phytotoxicity rating SETVI: rating scale 0-100, 14 days after application
Summary of the method: as §2

[13] = tested on: lambsquarters (Chenopodium album, CHEAL); assay: as above; conditions: for Pre-emerge Herbicidal Activity, phytotoxicity rating (0-100), CHEAL: rated 14 days after application, 0 = no damage, 100 = complete death; for Pre-emerge herbicidal activity, phytotoxicity rating CHEAL: rating scale 0-100, 14 days after application
Summary of the method: as §2

[14] = tested on: common ragweed (Ambrosia artemisizfolia L., AMBEL); assay: as above; conditions: for Pre-emerge Herbicidal Activity, phytotoxicity rating (0-100), AMBEL: rated 14 days after application, 0 = no damage, 100 = complete death; for Pre-emerge herbicidal activity, phytotoxicity rating AMBEL: rating scale 0-100, 14 days after application
Summary of the method: as §2

[15] = tested on: large crabgrass (Digitaria sanguinalis, DIGSA); assay: as above; conditions: for Pre-emerge Herbicidal Activity, phytotoxicity rating (0-100), DIGSA: rated 14 days after application, 0 = no damage, 100 = complete death; for Pre-emerge herbicidal activity, phytotoxicity rating DIGSA: rating scale 0-100, 14 days after application
Summary of the method: as §2

[16] = tested on: sicklepod (Cassia obtusifolia, CASOB); assay: as above; conditions: for Pre-emerge Herbicidal Activity, phytotoxicity rating (0-100), CASOB: rated 14 days after application, 0 = no damage, 100 = complete death; for Pre-emerge herbicidal activity, phytotoxicity rating CASOB: rating scale 0-100, 14 days after application
Summary of the method: as §2

[17] = tested on: johnsongrass (Sorghum halepense, SORHA); assay: as above; conditions: for Pre-emerge Herbicidal Activity, phytotoxicity rating (0-100), SORHA: rated 14 days after application, 0 = no damage, 100 = complete death; for Pre-emerge herbicidal activity, phytotoxicity rating SORHA: rating scale 0-100, 14 days after application
Summary of the method: as §2

[18] = tested on: barnyardgrass (Echinochloa crus-galli, ECHCG); assay: as above; conditions: for Pre-emerge Herbicidal Activity, phytotoxicity rating (0-100), ECHCG: rated 14 days after application, 0 = no damage, 100 = complete death; for Pre-emerge herbicidal activity, phytotoxicity rating ECHCG: rating scale 0-100, 14 days after application
Summary of the method: as §2

[19] = tested on: ivyleaf morningglory (Ipomoea hederacea, IPOHE); assay: as above; conditions: for Pre-emerge Herbicidal Activity, phytotoxicity rating (0-100), IPOHE: rated 14 days after application, 0 = no damage, 100 = complete death; for Pre-emerge herbicidal activity, phytotoxicity rating IPOHE: rating scale 0-100, 14 days after application
Summary of the method: as §2

[20] = post-emerge, 63 g ai/ha, 14 days after application
[21] = post-emerge, 250 g ai/ha, 14 days after application
[22] = Rate 250 g ai/ha, rating scale 0-100 (0 no damage, 100 complete death), 14 days after application

Cc1c(Cl)cc(F)c(-n2c(=O)cc(C(F)(F)F)n(C)c2=O)c1NC(=O)c1ccc2ccccc2c1 [Compound 2-122, 3-[4-chloro-6-fluoro3-methyl-2-(2-naphthoyl)aminophenyl]-1-methyl-6-trifluoromethyl-2,4(1H, 3H)-pyrimidinedione]
50: phytotoxicity rating ECHCG [7, 21] | Pre-emerge Herbicidal Activity, phytotoxicity rating (0-100), CASOB ([16]; 250 g ai/ha)
60: phytotoxicity rating DIGSA [4, 21] | phytotoxicity rating SORHA [6, 21] | Pre-emerge Herbicidal Activity, phytotoxicity rating (0-100), SORHA ([17]; 250 g ai/ha)
40: phytotoxicity rating DIGSA [4, 20]
95: phytotoxicity rating SETVI [2, 21]
80: phytotoxicity rating IPOHE [9, 21] | Pre-emerge Herbicidal Activity, phytotoxicity rating (0-100), SETVI ([12]; 63 g ai/ha) | Pre-emerge Herbicidal Activity, phytotoxicity rating (0-100), ECHCG ([18]; 250 g ai/ha)
20: Pre-emerge Herbicidal Activity, phytotoxicity rating (0-100), ECHCG ([18]; 63 g ai/ha)
100: phytotoxicity rating ABUTH [1, 20] | phytotoxicity rating ABUTH [1, 21] | phytotoxicity rating CHEAL [3, 20] | phytotoxicity rating CHEAL [3, 21] | phytotoxicity rating CASOB [5, 20] | phytotoxicity rating CASOB [5, 21] | phytotoxicity rating AMARE [8, 20] | phytotoxicity rating AMARE [8, 21] | phytotoxicity rating IPOHE [9, 20] | Pre-emerge Herbicidal Activity, phytotoxicity rating (0-100), AMARE ([10]; 63 g ai/ha) | Pre-emerge Herbicidal Activity, phytotoxicity rating (0-100), AMARE ([10]; 250 g ai/ha) | Pre-emerge Herbicidal Activity, phytotoxicity rating (0-100), ABUTH ([11]; 63 g ai/ha) | Pre-emerge Herbicidal Activity, phytotoxicity rating (0-100), ABUTH ([11]; 250 g ai/ha) | Pre-emerge Herbicidal Activity, phytotoxicity rating (0-100), SETVI ([12]; 250 g ai/ha) | Pre-emerge Herbicidal Activity, phytotoxicity rating (0-100), CHEAL ([13]; 63 g ai/ha) | Pre-emerge Herbicidal Activity, phytotoxicity rating (0-100), CHEAL ([13]; 250 g ai/ha) | Pre-emerge Herbicidal Activity, phytotoxicity rating (0-100), DIGSA ([15]; 63 g ai/ha) | Pre-emerge Herbicidal Activity, phytotoxicity rating (0-100), DIGSA ([15]; 250 g ai/ha)
30: phytotoxicity rating SORHA [6, 20] | phytotoxicity rating ECHCG [7, 20] | Pre-emerge Herbicidal Activity, phytotoxicity rating (0-100), AMBEL ([14]; 63 g ai/ha) | Pre-emerge Herbicidal Activity, phytotoxicity rating (0-100), CASOB ([16]; 63 g ai/ha) | Pre-emerge Herbicidal Activity, phytotoxicity rating (0-100), SORHA ([17]; 63 g ai/ha) | Pre-emerge Herbicidal Activity, phytotoxicity rating (0-100), IPOHE ([19]; 63 g ai/ha)
90: phytotoxicity rating SETVI [2, 20] | Pre-emerge Herbicidal Activity, phytotoxicity rating (0-100), AMBEL ([14]; 250 g ai/ha) | Pre-emerge Herbicidal Activity, phytotoxicity rating (0-100), IPOHE ([19]; 250 g ai/ha)

O=C(Nc1cc(Cl)ccc1N1C(=O)c2ccccc2C1=O)c1ccc2ccccc2c1 [Compound 13-5, N-[4-chloro-2-(2-naphthoylamino)phenyl]phthalimide]
50%: pest or weed control at 63 g/ha ([9]; Ipomoea, post-emergence, 336 h, post-emerge, 63 g ai/ha, phytotoxicity rating 0-100 at 14 days after application, read-out: Post-emerge Herbicidal Activity IPOHE)
95: Pre-emerge herbicidal activity, phytotoxicity rating AMARE ([10]; 250 g ai/ha)
60: Post-emerge Herbicidal Activity, phytotoxicity rating IPOHE [9, 22]
0: Post-emerge Herbicidal Activity, phytotoxicity rating SORHA [6, 22] | Post-emerge Herbicidal Activity, phytotoxicity rating ECHCG [7, 22] | Pre-emerge herbicidal activity, phytotoxicity rating ABUTH ([11]; 63 g ai/ha) | Pre-emerge herbicidal activity, phytotoxicity rating ABUTH ([11]; 250 g ai/ha) | Pre-emerge herbicidal activity, phytotoxicity rating AMBEL ([14]; 63 g ai/ha) | Pre-emerge herbicidal activity, phytotoxicity rating AMBEL ([14]; 250 g ai/ha) | Pre-emerge herbicidal activity, phytotoxicity rating DIGSA ([15]; 63 g ai/ha) | Pre-emerge herbicidal activity, phytotoxicity rating CASOB ([16]; 63 g ai/ha) | Pre-emerge herbicidal activity, phytotoxicity rating CASOB ([16]; 250 g ai/ha) | Pre-emerge herbicidal activity, phytotoxicity rating SORHA ([17]; 63 g ai/ha) | Pre-emerge herbicidal activity, phytotoxicity rating ECHCG ([18]; 63 g ai/ha) | Pre-emerge herbicidal activity, phytotoxicity rating ECHCG ([18]; 250 g ai/ha) | Pre-emerge herbicidal activity, phytotoxicity rating IPOHE ([19]; 63 g ai/ha) | Pre-emerge herbicidal activity, phytotoxicity rating IPOHE ([19]; 250 g ai/ha)
50: Pre-emerge herbicidal activity, phytotoxicity rating SETVI ([12]; 250 g ai/ha) | Pre-emerge herbicidal activity, phytotoxicity rating CHEAL ([13]; 250 g ai/ha)
0%: pest or weed control at 63 g/ha ([2]; Setaria viridis, post-emergence, 336 h, post-emerge, 63 g ai/ha, phytotoxicity rating 0-100 at 14 days after application, read-out: Post-emerge Herbicidal Activity SETVI) | pest or weed control at 63 g/ha ([4]; Digitaria sanguinalis, post-emergence, 336 h, post-emerge, 63 g ai/ha, phytotoxicity rating 0-100 at 14 days after application, read-out: Post-emerge Herbicidal Activity DIGSA) | pest or weed control at 63 g/ha ([6]; Sorghum halepense, post-emergence, 336 h, post-emerge, 63 g ai/ha, phytotoxicity rating 0-100 at 14 days after application, read-out: Post-emerge Herbicidal Activity SORHA) | pest or weed control at 63 g/ha ([7]; Echinochloa crus-galli, post-emergence, 336 h, post-emerge, 63 g ai/ha, phytotoxicity rating 0-100 at 14 days after application, read-out: Post-emerge Herbicidal Activity ECHCG)
40%: pest or weed control at 63 g/ha ([5]; Senna obtusifolia, post-emergence, 336 h, post-emerge, 63 g ai/ha, phytotoxicity rating 0-100 at 14 days after application, read-out: Post-emerge Herbicidal Activity CASOB)
70%: pest or weed control at 63 g/ha ([1]; Abutilon theophrasti, post-emergence, 336 h, post-emerge, 63 g ai/ha, phytotoxicity rating 0-100 at 14 days after application, read-out: Post-emerge Herbicidal Activity ABUTH) | pest or weed control at 63 g/ha ([8]; Amaranthus retroflexus, post-emergence, 336 h, post-emerge, 63 g ai/ha, phytotoxicity rating 0-100 at 14 days after application, read-out: Post-emerge Herbicidal Activity AMARE)
10: Post-emerge Herbicidal Activity, phytotoxicity rating SETVI [2, 22] | Pre-emerge herbicidal activity, phytotoxicity rating DIGSA ([15]; 250 g ai/ha)
90: Post-emerge Herbicidal Activity, phytotoxicity rating CHEAL [3, 22]
30: Post-emerge Herbicidal Activity, phytotoxicity rating CASOB [5, 22] | Pre-emerge herbicidal activity, phytotoxicity rating AMARE ([10]; 63 g ai/ha) | Pre-emerge herbicidal activity, phytotoxicity rating SETVI ([12]; 63 g ai/ha) | Pre-emerge herbicidal activity, phytotoxicity rating SORHA ([17]; 250 g ai/ha)
95%: pest or weed control at 63 g/ha ([3]; Chenopodium album, post-emergence, 336 h, post-emerge, 63 g ai/ha, phytotoxicity rating 0-100 at 14 days after application, read-out: Post-emerge Herbicidal Activity CHEAL)
70: Post-emerge Herbicidal Activity, phytotoxicity rating ABUTH [1, 22]
20: Post-emerge Herbicidal Activity, phytotoxicity rating DIGSA [4, 22] | Pre-emerge herbicidal activity, phytotoxicity rating CHEAL ([13]; 63 g ai/ha)
75: Post-emerge Herbicidal Activity, phytotoxicity rating AMARE [8, 22]
